Values after ≈ are worked out from the molar mass of the structure shown.
Legend:
renal cancer cell lines = assay: NCI-60 screen (SRB), renal cancer panel; type: cell-based; settings: Homo sapiens, single dose 10 μM, read-out: GI (growth inhibition), range over panel
A498 = assay: NCI-60 screen (SRB), renal cancer; settings: Homo sapiens; for IC50: A498; for CC50: A498, read-out: LC50
[1] = test system: Mycobacterium tuberculosis H37Rv (ATCC 27294); assay: microbe, parasite or virus in culture; type: cell-based; settings: Mycobacterium tuberculosis; agar dilution SPOTi; read-out: MIC Against M. tuberculosis H37Rv
SF-295 = assay: NCI-60 screen (SRB), CNS cancer; settings: Homo sapiens; for IC50: SF-295; for CC50: SF-295, read-out: LC50
Vero cell line = assay: Cytotoxicity on Vero cell line (MTT); type: cell-based, African green monkey; settings: Vero IC50 / MIC M. tuberculosis H37Rv
[2] = Cytotoxicity on Vero cell line (MTT); type: cell-based, African green monkey; settings: African green monkey, Vero cells (African green monkey kidney, ATCC CCL-81); MTT, 24 h
HOP-62 = assay: NCI-60 screen (SRB), non-small cell lung cancer; settings: Homo sapiens; for IC50: HOP-62; for CC50: HOP-62, read-out: LC50
EKVX = assay: NCI-60 screen (SRB), non-small cell lung cancer; settings: Homo sapiens; for CC50: read-out: LC50
NCI/ADR-RES = assay: NCI-60 screen (SRB), ovarian cancer; settings: Homo sapiens; for CC50: read-out: LC50
MCF7 = assay: NCI-60 screen (SRB), breast cancer; settings: Homo sapiens; for IC50: MCF7; for CC50: MCF7, read-out: LC50
SK-MEL-5 = assay: NCI-60 screen (SRB), melanoma; settings: Homo sapiens; for IC50: SK-MEL-5; for CC50: SK-MEL-5, read-out: LC50
MDA-MB-468 = assay: NCI-60 screen (SRB), breast cancer; settings: for IC50 / CC50: Homo sapiens; for IC50: MDA-MB-468; for CC50: MDA-MB-468, read-out: LC50; for lethality: MDA-MB-468, single dose 10 μM
HOP-92 = assay: NCI-60 screen (SRB), non-small cell lung cancer; settings: Homo sapiens; for IC50: HOP-92; for CC50: HOP-92, read-out: LC50
MDA-MB-231/ATCC = assay: NCI-60 screen (SRB), breast cancer; settings: Homo sapiens; for IC50: MDA-MB-231; for CC50: MDA-MB-231, read-out: LC50
ACHN = assay: NCI-60 screen (SRB), renal cancer; settings: Homo sapiens; for CC50: read-out: LC50
[3] = test system: Mycobacterium bovis BCG (ATCC 35734); assay: microbe, parasite or virus in culture; type: cell-based; settings: Mycobacterium tuberculosis variant bovis BCG, read-out: MIC Against M. bovis BCG

With `COc1cc(OC)c(S(N)(=O)=O)cc1C(=O)C=Cc1ccccc1` [Compound 17a, 5-Cinnamoyl-2,4-dimethoxybenzenesulfonamide] the inhibition at 10 µM (renal cancer cell lines) was 66.2 to 100%, the IC50 (A498) was 16.9 µM and the CC50 (A498) was 55.8 µM. For the same compound, the MIC [1] was 29 µM (≈ 10.1 µg/mL), the IC50 (SF-295) was 15.7 µM and the CC50 (SF-295) was 58.2 µM. For the same compound, the “Selectivity Index (SI) (SI = IC50/MIC)” value (Vero cell line) was 0.04, the IC50 at 24 h [2] was 1.06 ± 1.21 µM and the IC50 (HOP-62) was 9.51 µM. The CC50 (HOP-62) was 51.9 µM, the IC50 (EKVX) was 14.2 µM and the CC50 (EKVX) was 53.6 µM. For the same compound, the IC50 (NCI/ADR-RES) was 15.5 µM, the CC50 (NCI/ADR-RES) was > 100 µM and the IC50 (MCF7) was 0.97 µM. It also gave a CC50 (MCF7) of 62.5 µM, an IC50 (SK-MEL-5) of 17.6 µM and a CC50 (SK-MEL-5) of 59.7 µM. The IC50 (MDA-MB-468) was 1.2 µM, the CC50 (MDA-MB-468) was 43.9 µM and the lethality (MDA-MB-468) was 43.37%. It also gave an IC50 (HOP-92) of 2.06 µM, a CC50 (HOP-92) of 37.1 µM and an IC50 (MDA-MB-231/ATCC) of 11.9 µM. It also gave a CC50 (MDA-MB-231/ATCC) of 61.6 µM, an IC50 (ACHN) of 6.99 µM and a CC50 (ACHN) of 44.8 µM. For the same compound, the MIC [3] was > 29 µM.

With `COc1cc(OC)c(S(N)(=O)=O)cc1C(=O)/C=C/c1ccc(Cl)cc1` [Compound 17b, (E)-5-(3-(4-Chlorophenyl)acryloyl)-2,4-dimethoxybenzenesulfonamide] the inhibition at 10 µM (renal cancer cell lines) was 78.5 to 100%, the IC50 (A498) was 18.6 µM and the CC50 (A498) was 62.2 µM. It also gave an IC50 (SF-295) of 3.88 µM, a CC50 (SF-295) of 57.6 µM and an IC50 (HOP-62) of 2.5 µM. The CC50 (HOP-62) was 25.9 µM, the IC50 (EKVX) was 3.88 µM and the CC50 (EKVX) was > 100 µM. The IC50 (NCI/ADR-RES) was 3.97 µM, the CC50 (NCI/ADR-RES) was > 100 µM and the IC50 (MCF7) was 4.11 µM. The CC50 (MCF7) was 40.3 µM, the IC50 (SK-MEL-5) was 4.93 µM and the CC50 (SK-MEL-5) was 43 µM. For the same compound, the IC50 (MDA-MB-468) was 3.08 µM, the CC50 (MDA-MB-468) was 6.54 µM and the lethality (MDA-MB-468) was 57.82%. It also gave an IC50 (HOP-92) of 1.46 µM, a CC50 (HOP-92) of 24.9 µM and an IC50 (MDA-MB-231/ATCC) of 18.9 µM. For the same compound, the CC50 (MDA-MB-231/ATCC) was > 100 µM, the IC50 (ACHN) was 3.16 µM and the CC50 (ACHN) was 33.4 µM.

`COc1cc(OC)c(S(N)(=O)=O)cc1C(=O)/C=C/c1ccc(C)cc1` [Compound 17c, (E)-2,4-Dimethoxy-5-(3-(p-tolyl)acryloyl)benzenesulfonamide] showed an IC50 (A498) of 16.2 µM, a CC50 (A498) of 58.1 µM and an IC50 (SF-295) of 3.89 µM. The CC50 (SF-295) was 43.2 µM, the IC50 (HOP-62) was 2.9 µM and the CC50 (HOP-62) was 29.5 µM. The IC50 (EKVX) was 4.33 µM, the CC50 (EKVX) was 43.3 µM and the IC50 (NCI/ADR-RES) was 5.25 µM. The CC50 (NCI/ADR-RES) was > 100 µM, the IC50 (MCF7) was 2.48 µM and the CC50 (MCF7) was 54.1 µM. The IC50 (SK-MEL-5) was 7.81 µM, the CC50 (SK-MEL-5) was 49.4 µM and the IC50 (MDA-MB-468) was 1.96 µM. It also gave a CC50 (MDA-MB-468) of 54.3 µM, a lethality (MDA-MB-468) of 36.18% and an IC50 (HOP-92) of 2.3 µM. For the same compound, the CC50 (HOP-92) was 35.4 µM, the IC50 (MDA-MB-231/ATCC) was 3.41 µM and the CC50 (MDA-MB-231/ATCC) was 60 µM. It also gave an IC50 (ACHN) of 3.86 µM and a CC50 (ACHN) of 37.3 µM.

With `COc1cc(OC)c(S(=O)(=O)N(CCCl)CCCl)cc1C(=O)/C=C/c1cc(OC)c(OC)c(OC)c1` [Compound 18e, (E)-N,N-bis(2-Chloroethyl)-2,4-dimethoxy-5-(3-(3,4,5-trimethoxyphenyl)acryloyl)benzenesulfonamide] the IC50 (A498) was 7.23 µM, the CC50 (A498) was 65.5 µM and the IC50 (SF-295) was 35.4 µM. For the same compound, the CC50 (SF-295) was > 100 µM, the IC50 (HOP-62) was 3.77 µM and the CC50 (HOP-62) was > 100 µM. For the same compound, the IC50 (EKVX) was 2.69 µM, the CC50 (EKVX) was > 100 µM and the IC50 (NCI/ADR-RES) was > 100 µM. The CC50 (NCI/ADR-RES) was > 100 µM, the IC50 (MCF7) was 4.36 µM and the CC50 (MCF7) was 35.5 µM. The IC50 (SK-MEL-5) was 3.64 µM, the CC50 (SK-MEL-5) was 7.19 µM and the IC50 (MDA-MB-468) was 3.66 µM. For the same compound, the CC50 (MDA-MB-468) was 8.84 µM, the IC50 (HOP-92) was > 100 µM and the CC50 (HOP-92) was > 100 µM. For the same compound, the IC50 (MDA-MB-231/ATCC) was > 100 µM, the CC50 (MDA-MB-231/ATCC) was > 100 µM and the IC50 (ACHN) was 6.16 µM. The CC50 (ACHN) was > 100 µM.
